Laboratory results taken from the NIST ThermoML archive (doi:10.1016/j.jct.2008.01.018).

Test: mn = molality of the nth substance listed, in mol/kg
Settings: 101 kPa, Liquid; for speed of sound: Sing-around technique in a fixed-path interferometer; for molar conductivity: Alternating current cell with electrodes

O=P([O-])(O)O.[Na+] [sodium dihydrogen phosphate] + O
Settings	mass density [kg/m3]	molar conductivity [S·m2/mol]	speed of sound [m/s]
283.15 K, m1 = 0.0343	1002.89	–	1451.8
283.15 K, m1 = 0.0484	1004.16	–	1453.5
283.15 K, m1 = 0.1399	1012.4	–	1463.6
283.15 K, m1 = 0.167	1014.82	–	1466.5
283.15 K, m1 = 0.1967	1017.47	–	1469.7
283.15 K, m1 = 0.2231	1019.84	–	1472.6
283.15 K, m1 = 0.2506	1022.23	–	1475.5
283.15 K, m1 = 0.3229	1028.59	–	1483.2
283.15 K, m1 = 0.3586	1031.67	–	1486.9
283.15 K, m1 = 0.4346	1038.07	–	1494.7
283.15 K, m1 = 0.5108	1044.45	–	1502.2
283.15 K, m1 = 0.5812	1050.36	–	1509.2
283.15 K, m1 = 0.6658	1057.33	–	1517.5
283.15 K, m1 = 0.7462	1063.82	–	1525.3
283.15 K, m1 = 0.9163	1077.42	–	1541.5
283.15 K, m1 = 1.093	1091.46	–	1558.4
283.15 K, m1 = 1.262	1104.21	–	1573.7
283.15 K, m1 = 1.451	1117.95	–	1590.5
283.15 K, m1 = 1.758	1139.71	–	1617
283.15 K, m1 = 2.041	1159.21	–	1641.2
283.15 K, m1 = 2.374	1181.48	–	1669.2
283.15 K, m1 = 2.747	1205.29	–	1699.5
283.15 K, m1 = 3.115	1226.77	–	1727.2
283.15 K, m1 = 3.512	1250.32	–	1758.2
288.15 K, m1 = 0.0343	1002.25	–	1470
288.15 K, m1 = 0.0484	1003.5	–	1471.6
288.15 K, m1 = 0.1399	1011.65	–	1481.2
288.15 K, m1 = 0.167	1014.03	–	1484.1
288.15 K, m1 = 0.1967	1016.66	–	1487.2
288.15 K, m1 = 0.2231	1019	–	1490
288.15 K, m1 = 0.2506	1021.37	–	1492.8
288.15 K, m1 = 0.3229	1027.65	–	1500.2
288.15 K, m1 = 0.3586	1030.7	–	1503.7
288.15 K, m1 = 0.4346	1037.04	–	1511.1
288.15 K, m1 = 0.5108	1043.36	–	1518.4
288.15 K, m1 = 0.5812	1049.21	–	1525.2
288.15 K, m1 = 0.6658	1056.12	–	1533.1
288.15 K, m1 = 0.7462	1062.54	–	1540.5
288.15 K, m1 = 0.9163	1076.03	–	1556.1
288.15 K, m1 = 1.093	1089.96	–	1572.3
288.15 K, m1 = 1.262	1102.62	–	1587
288.15 K, m1 = 1.451	1116.26	–	1602.9
288.15 K, m1 = 1.758	1137.89	–	1628.3
288.15 K, m1 = 2.041	1157.28	–	1651.4
288.15 K, m1 = 2.374	1179.42	–	1678.2
288.15 K, m1 = 2.747	1203.12	–	1707.2
288.15 K, m1 = 3.115	1224.51	–	1733.6
288.15 K, m1 = 3.512	1247.97	–	1763.3
293.15 K, m1 = 0.0343	1001.32	–	1486
293.15 K, m1 = 0.0484	1002.56	–	1487.6
293.15 K, m1 = 0.1399	1010.62	–	1496.9
293.15 K, m1 = 0.167	1012.98	–	1499.7
293.15 K, m1 = 0.1967	1015.58	–	1502.7
293.15 K, m1 = 0.2231	1017.9	–	1505.3
293.15 K, m1 = 0.2506	1020.25	–	1508
293.15 K, m1 = 0.3229	1026.47	–	1515.1
293.15 K, m1 = 0.3586	1029.5	–	1518.5
293.15 K, m1 = 0.4346	1035.78	–	1525.6
293.15 K, m1 = 0.5108	1042.04	–	1532.6
293.15 K, m1 = 0.5812	1047.85	–	1539.1
293.15 K, m1 = 0.6658	1054.7	–	1546.8
293.15 K, m1 = 0.7462	1061.08	–	1553.9
293.15 K, m1 = 0.9163	1074.46	–	1568.9
293.15 K, m1 = 1.093	1088.3	–	1584.3
293.15 K, m1 = 1.262	1100.87	–	1598.5
293.15 K, m1 = 1.451	1114.43	–	1613.8
293.15 K, m1 = 1.758	1135.93	–	1638.1
293.15 K, m1 = 2.041	1155.22	–	1660.2
293.15 K, m1 = 2.374	1177.26	–	1685.9
293.15 K, m1 = 2.747	1200.86	–	1713.7
293.15 K, m1 = 3.115	1222.16	–	1739
293.15 K, m1 = 3.512	1245.55	–	1767.4
298.15 K, m1 = 0.0207	–	0.00762	–
298.15 K, m1 = 0.0343	1000.13	–	1500.2
298.15 K, m1 = 0.0415	–	0.00723	–
298.15 K, m1 = 0.0484	1001.36	–	1501.7
298.15 K, m1 = 0.0697	–	0.00683	–
298.15 K, m1 = 0.1051	–	0.00655	–
298.15 K, m1 = 0.1397	–	0.00634	–
298.15 K, m1 = 0.1399	1009.35	–	1510.6
298.15 K, m1 = 0.167	1011.69	–	1513.2
298.15 K, m1 = 0.1901	–	0.0061	–
298.15 K, m1 = 0.1967	1014.27	–	1516.2
298.15 K, m1 = 0.2231	1016.57	–	1518.7
298.15 K, m1 = 0.2357	–	0.0059	–
298.15 K, m1 = 0.2506	1018.89	–	1521.3
298.15 K, m1 = 0.2947	–	0.00572	–
298.15 K, m1 = 0.3229	1025.07	–	1528.2
298.15 K, m1 = 0.3516	–	0.00553	–
298.15 K, m1 = 0.3586	1028.07	–	1531.5
298.15 K, m1 = 0.433	–	0.00533	–
298.15 K, m1 = 0.4346	1034.3	–	1538.3
298.15 K, m1 = 0.5108	1040.52	–	1545
298.15 K, m1 = 0.5113	–	0.00517	–
298.15 K, m1 = 0.5812	1046.29	–	1551.3
298.15 K, m1 = 0.5842	–	0.00496	–
298.15 K, m1 = 0.653	–	0.00484	–
298.15 K, m1 = 0.6658	1053.09	–	1558.7
298.15 K, m1 = 0.6999	–	0.00475	–
298.15 K, m1 = 0.7462	1059.42	–	1565.5
298.15 K, m1 = 0.7919	–	0.00457	–
298.15 K, m1 = 0.9163	1072.73	–	1579.9
298.15 K, m1 = 0.9206	–	0.00436	–
298.15 K, m1 = 1.093	1086.48	–	1594.8
298.15 K, m1 = 1.175	–	0.00398	–
298.15 K, m1 = 1.18	–	0.00398	–
298.15 K, m1 = 1.262	1098.98	–	1608.4
298.15 K, m1 = 1.447	–	0.00367	–
298.15 K, m1 = 1.451	1112.46	–	1623.1
298.15 K, m1 = 1.758	1133.86	–	1646.4
298.15 K, m1 = 1.794	–	0.00329	–
298.15 K, m1 = 2.041	1153.06	–	1667.7
298.15 K, m1 = 2.079	–	0.00303	–
298.15 K, m1 = 2.374	1175	–	1692.3
298.15 K, m1 = 2.396	–	0.00276	–
298.15 K, m1 = 2.398	–	0.00278	–
298.15 K, m1 = 2.747	1198.51	–	1718.9
298.15 K, m1 = 3.115	1219.74	–	1743.2
298.15 K, m1 = 3.512	1243.05	–	1770.5
303.15 K, m1 = 0.0343	998.703	–	1512.4
303.15 K, m1 = 0.0484	999.924	–	1513.9
303.15 K, m1 = 0.1399	1007.86	–	1522.5
303.15 K, m1 = 0.167	1010.18	–	1525.1
303.15 K, m1 = 0.1967	1012.74	–	1527.9
303.15 K, m1 = 0.2231	1015.02	–	1530.4
303.15 K, m1 = 0.2506	1017.33	–	1532.9
303.15 K, m1 = 0.3229	1023.47	–	1539.5
303.15 K, m1 = 0.3586	1026.45	–	1542.6
303.15 K, m1 = 0.4346	1032.64	–	1549.3
303.15 K, m1 = 0.5108	1038.82	–	1555.8
303.15 K, m1 = 0.5812	1044.55	–	1561.8
303.15 K, m1 = 0.6658	1051.31	–	1568.9
303.15 K, m1 = 0.7462	1057.61	–	1575.5
303.15 K, m1 = 0.9163	1070.83	–	1589.4
303.15 K, m1 = 1.093	1084.51	–	1603.7
303.15 K, m1 = 1.262	1096.94	–	1616.8
303.15 K, m1 = 1.451	1110.36	–	1631
303.15 K, m1 = 1.758	1131.66	–	1653.4
303.15 K, m1 = 2.041	1150.78	–	1673.9
303.15 K, m1 = 2.374	1172.65	–	1697.5
303.15 K, m1 = 2.747	1196.07	–	1723.2
303.15 K, m1 = 3.115	1217.23	–	1746.5
303.15 K, m1 = 3.512	1240.48	–	1772.8
